In patent publication US6825350B2, “Sulfonamide and sulfamide substituted imidazoquinolines and methods for the treatment of periodontal disease using these and other immune response modifiers” (3M Innovative Properties Company, priority 1999, dated 2004) one finds minimal effective concentration and melting point data, which are given here for 8 compounds.

Counter-ions that a name gives are not always drawn. Like-named read-outs stand apart in the source and are kept apart here. Some results are limits rather than exact numbers.

In one data set the test system is interferon (α). Nature of the data set: Cytokine induction in human cells: interferon (α) by ELISA. The class given is cell-based. The following applies: human PBMCs, 18 to 24 hours incubation, ELISA of culture supernatant, read-out: Lowest Effective Concentration (μM) Interferon.
The test system of data set [1] is tumor necrosis factor (α). The data set is described as follows: Cytokine induction in human cells: tumor necrosis factor (α) by ELISA. The class given is cell-based. The following applies: Homo sapiens, PBMC, human PBMCs, 18 to 24 hours incubation, ELISA of culture supernatant; read-out: Lowest Effective Concentration (μM) Tumor Necrosis Factor.

As to `CCCCc1nc2c(N)nc3ccccc3c2n1CCCCNS(=O)(=O)c1cccc2cnccc12` [Example 11, N^5-[4-(4-Amino-2-butyl-1H-imidazo[4,5-c]quinolin-1-yl)butyl]-5-isoquinolinesulfonamide], the melting point was 96 °C (dec.). The minimal effective concentration with interferon (α) (Homo sapiens, PBMC) was 0.01 µM. Also, in data set [1], the minimal effective concentration was 1.11 µM.
In the same order, the values of `CCCCc1nc2c(N)nc3ccccc3c2n1CCCCNS(=O)(=O)c1cccc2c(N(C)C)cccc12` [Example 1, N^1-[4-(4-Amino-2-butyl-1H-imidazo[4,5-c]quinolin-1-yl)butyl]-5-(dimethylamino)-1-naphthalenesulfonamide] are 223 to 224 °C, 0.12 µM and 3.33 µM.
The compound `CCCCc1nc2c(N)nc3ccccc3c2n1CCCCNS(=O)(=O)c1cccc([N+](=O)[O-])c1` (as salt: hydrochloride) [Example 7, N^1-[4-(4-Amino-2-butyl-1H-imidazo[4,5-c]quinolin-1-yl)butyl]-3-nitro-1-benzenesulfonamide Hydrochloride] gave a melting point of 176 to 178.2 °C.
`CCCCc1nc2c(N)nc3ccccc3c2n1CCCCNS(=O)(=O)c1cccs1` [Example 3, N^2-[4-(4-Amino-2-butyl-1H-imidazo[4,5-c]quinolin-1-yl)butyl]-2-thiophenesulfonamide] had a melting point of 137.5 to 141.5 °C. Moreover, the minimal effective concentration in the data set on interferon (α) is on record as 0.01 µM.
Turning to `CN(C)c1cccc2c(S(=O)(=O)NCCCCn3cnc4c(N)nc5ccccc5c43)cccc12` [Example 2, N^1-[4-(4-Amino-1H-imidazo[4,5-c]quinolin-1-yl)butyl]-5-(dimethylamino)-1-naphthalenesulfonamide], the melting point is 200 to 201 °C. Moreover, the minimal effective concentration in the data set with interferon (α) (Homo sapiens, PBMC) was > 30 µM. Also, in data set [1], the minimal effective concentration is > 30 µM.
For `COc1ccc(Cc2nc3c(N)nc4ccccc4c3n2CCCCNS(C)(=O)=O)cc1` [Example 12, N-[4-(4-Amino-2-(4-methoxybenzyl)-1H-imidazo[4,5-c]quinolin-1-yl]butyl]methanesulfonamide], the melting point is 78.1 to 79.5 °C.
`Nc1nc2ccccc2c2c1nc(-c1ccccc1)n2CCCCNS(=O)(=O)c1ccc(F)cc1` [Example 15, N-[4-(4-Amino-2-phenyl-1H-imidazo[4,5-c]quinolin-1-yl)butyl]-4-fluoro-1-benzenesulfonamide]: the melting point lay within 214 to 216 °C.
Still for that read-out and setting: the same measure for `CCCCc1nc2c(N)nc3ccccc3c2n1CCCCNS(=O)(=O)c1ccccc1` [Example 5, N^1-[4-(4-Amino-2-butyl-1H-imidazo [4,5-c]quinolin-1-yl)butyl]-1-benzenesulfonamide]: 75.5 to 79 °C.
